Converted amounts (≈) assume the structure as drawn. Where two headings read alike, the source gives them in different places.
Key:
[1] = test system: E. multilocularis metacestodes; test: PGI-assay: drug-induced damage on in vitro cultured metacestodes (Pathogen Box screening cascade and EC50); format: cell-based, Echinococcus multilocularis
E. granulosus = test system: E. granulosus; design: method as in Kammerer and Perez-Esandi, 1975; Miyaji et al., 1993; details: ref Kammerer and Perez-Esandi, 1975; Miyaji et al., 1993; cited from earlier work
[2] = test system: human foreskin fibroblasts (HFF); design: method as in Stadelmann et al., 2016; details: ref Stadelmann et al., 2016; cited from earlier work
[3] = test system: E. multilocularis metacestodes; test: Vesicle viability assay by Alamar Blue (MIC); format: cell-based, Echinococcus multilocularis; details: Alamar Blue vesicle viability assay, 12 days of incubation; for MIC: read-out: E. multilocularis MIC
Method: The setup was the same as for PGI-assay EC50 calculations and it was performed in triplicates. […] Data was used to calculate the minimal inhibitory concentrations (MICs) of these compounds on metacestodes.

[4] = test system: Reuber rat hepatoma (RH) cells; test: Cytotoxicity by Alamar Blue assay in rat hepatoma cells; format: cell-based; details: 120 h
[5] = test system: E. multilocularis metacestodes; test: Transmission electron microscopy of BPQ-treated metacestodes; format: cell-based, Echinococcus multilocularis
Method: The preparation of the samples for transmission electron microscopy (TEM) was done according to the protocol of [Hemphill and Croft (1997)]. In short, E. multilocularis metacestodes were distributed to 48-well-plates and incubated with DMSO or BPQ (30–0.04 μM) as described above. After an incubation period of 5 days, metacestodes were fixed in 2% glutaraldehyde in 0.1 M sodium cacodylate buffer; pH = 7.3 for 1 h. Next, the samples were stained for 2 h in a 2% osmium tetroxide solution cacodylate buffer, and subsequently pre-stained in a saturated uranyl acetate solution for 30 min. After washing the samples with water, they were dehydrated stepwise by washing in increasing concentrations of ethanol (30%, 50%, 70%, 90%, and three times 100%). The samples were then embedded in Epon 812 resin with three subsequent resin changes during 2 days and incubated at 65 °C overnight for polymerization. Sections for TEM (80 nm) were cut using an ultramicrotome (Reichert and Jung, Vienna, Austria), and were loaded onto formvar-carbon coated nickel grids (Plano GmbH, Marburg, Germany). The specimens were finally stained with uranyl acetate and lead citrate, and were viewed on a CM12 transmission electron microscope (Philips Electron Optics, Eindhoven, Netherlands) that operates at 80 kV.

[6] = test system: mitochondrial respiration of E. multilocularis GL cells; test: Mitochondrial respiration (OCR) in permeabilized GL cells by Seahorse XFp analyzer; format: cell-based, Echinococcus multilocularis; details: 1 μM
[7] = test system: E. multilocularis metacestodes; test: BPQ treatment of E. multilocularis infected mice; format: in vivo, Balb/c mice; details: for parasite burden compared to the control: p.o. in corn oil, 5 days per week, 4 weeks, BPQ 100 mg/kg, ABZ 200 mg/kg
Method: Balb/c mice, 6 weeks old, were purchased from Charles River Laboratories (Sulzheim, Germany) and used for in vivo experiments when they were 8 weeks old and weighted approximately 20 g. The mice were housed in a type 3 cage containing enrichment in the form of a cardboard house and paper and woodchip bedding with a maximum of seven mice per cage. […] Food and water was provided ad libitum. Experimentally infected mice were treated with BPQ to elucidate the efficacy of the drug in vivo. To infect mice, in vitro grown E. multilocularis metacestodes (isolate […]) were washed in PBS, were mechanically destroyed by pipetting and the resulting suspension was centrifuged for 5 min at 500 g. The parasite tissue was then taken up in an equal volume of PBS. Each mouse was subsequently infected intraperitoneally (i.p.) with 200 μl of this suspension. […] infected mice were randomly distributed into 3 treatment groups (8 animals per group) with 4 animals per cage. […] Treatments of mice started 2 weeks post-infection and lasted for 4 weeks, with consecutive treatment of mice for 5 days per week, followed by an interruption of treatment for 2 days for recovery. All treatments were administered by oral gavage in a volume of 50 μl, with ABZ and BPQ being suspended in corn oil. After four weeks, all mice were anesthetized with isoflurane and subsequently euthanized by CO2. The parasitic tissue from each mouse was completely resected and weighed. The mass of the resected parasitic tissue was used for statistical analyses of the experiment. […] The significance level was set to p < 0.05. Figures were prepared in R and Adobe Illustrator 2015.1.0.

[8] = BPQ levels in orally treated mice (literature); format: in vivo; details: extrapolation to 100 mg/kg
[9] = design: method as in Smith et al., 2018; details: mice, oral, single dose of 6 mg/kg; ref Smith et al., 2018; cited from earlier work
[10] = test system: E. multilocularis metacestodes; test: PGI-assay under anaerobic/aerobic conditions; details: oxygen-free atmosphere, 5 days
[11] = test system: human foreskin fibroblasts (HFF); test: Cytotoxicity by Alamar Blue assay in human foreskin fibroblasts; details: Homo sapiens, Fibroblast, 120 h
[12] = Echinococcus multilocularis, 120 h; 10 µM, singlets, 5 days of incubation; read-out: PGI release, % of the Tx-100 control, 5d
[13] = Echinococcus multilocularis, 288 h; 10 µM, singlets, 12 days of incubation; read-out: PGI release, % of the Tx-100 control, 12d
[14] = 1 µM, triplicates, 5 days of incubation
[15] = 1 µM, triplicates, 12 days of incubation
[16] = comparison of EC50 with IC50 on mammalian cells
[17] = read-out: HFF preconfluent IC50

**Q.** Which results are given for `Cc1ccc(C(=O)Nc2ccc(S(=O)(=O)O)c3cc(S(=O)(=O)O)cc(S(=O)(=O)O)c23)cc1NC(=O)c1cccc(NC(=O)Nc2cccc(C(=O)Nc3cc(C(=O)Nc4ccc(S(=O)(=O)O)c5cc(S(=O)(=O)O)cc(S(=O)(=O)O)c45)ccc3C)c2)c1` [MMV637953, Suramin, reference compound]?
**A.** activity in the present in vitro screen (threshold 20% relative activity compared to Tx-100) ([1]; 10 μM): inactive; cytotoxicity at 10 µM [1, 12]: 0.85%; cytotoxicity at 10 µM [1, 13]: 0.51%; effect in vivo against E. granulosus (E. granulosus): did not show any effects

**Q.** With `O=C(Nc1cccc(C(F)(F)F)c1)c1cc(Cl)ccc1O` [MMV665807] as the molecule, how does the “toxicity against HFF” value [2] read?
**A.** The value was “did not exhibit any specific toxicity”.

**Q.** Which “activity against metacestodes at 1 μM” value ([1]; 1 μM, triplicates) does the source give for `CC(C)(C)[C@H]1CC[C@H](CC2=C(O)C(=O)c3ccccc3C2=O)CC1` [MMV689480, Buparvaquone] here?
**A.** Its value is “distinct in vitro activities”.

**Q.** And the “PGI release, % of Tx-100 control, average, 5d” value [1, 14]?
**A.** Its value is 1.05%.

**Q.** What about the “PGI release, % of Tx-100 control, average, 12d” value [1, 15] of the same molecule?
**A.** The value was 52.04%.

**Q.** And the “activity in the screen at 10 μM (confirmed in triplicates, >20% relative PGI release)” value ([1]; 10 μM, 5 and 12 days)?
**A.** Its value is “active”.

**Q.** And the cytotoxicity at 10 µM [1, 12]?
**A.** The cytotoxicity at 10 µM was 27.4%.

**Q.** And the EC50 ([1]; Echinococcus multilocularis, 120 h; PGI-assay, 5 days in vitro; read-out: E. multilocularis EC50)?
**A.** Its EC50 is 2.87 µM.

**Q.** And the PGI release, % of Tx-100 control at 10 µM ([1]; Echinococcus multilocularis, 120 h; confirmatory screening at 10 µM in triplicates, 5 days of incubation, values as % of Tx-100 control; read-out: PGI release, % of Tx-100 control, average, 5d)?
**A.** The PGI release, % of Tx-100 control at 10 µM was 41.2%.

**Q.** What about the cytotoxicity at 10 µM [1, 13] of the same molecule?
**A.** The cytotoxicity at 10 µM was 38.6%.

**Q.** What about the PGI release, % of Tx-100 control at 10 µM ([1]; Echinococcus multilocularis, 288 h; confirmatory screening at 10 µM in triplicates, 12 days of incubation, values as % of Tx-100 control; read-out: PGI release, % of Tx-100 control, average, 12d) of the same molecule?
**A.** Its PGI release, % of Tx-100 control at 10 µM is 63.7%.

**Q.** And the IC50 ([1]; Echinococcus multilocularis; read-out: IC50 against in vitro cultured E. multilocularis metacestodes)?
**A.** The IC50 was 2.87 µM.

**Q.** And the “toxicity against E. multilocularis metacestodes compared with host cells (HFF, RH)” value [1, 16]?
**A.** The value was “specific toxicity”.

**Q.** What about the MIC ([3]; Echinococcus multilocularis, 288 h) of the same molecule?
**A.** The MIC was 0.56 µM (≈ 0.183 µg/mL).

**Q.** And the IC50 ([4]; Alamar Blue, confluent cells, 5 days, read-out: RH confluent IC50)?
**A.** The IC50 was 17.4 µM.

**Q.** What about the IC50 ([4]; Alamar Blue, preconfluent cells, 5 days, read-out: RH preconfluent IC50) of the same molecule?
**A.** Its IC50 is 8.47 µM.

**Q.** What about the “ultrastructural alterations (TEM) at 1 μM” value ([5]; 1 μM, 5 days) of the same molecule?
**A.** Its value is “membrane stacks were observed, and the GL started to separate from the LL”.

**Q.** What about the “ultrastructural alterations (TEM) at 3 μM” value ([5]; 3 μM, 5 days) of the same molecule?
**A.** Its value is “metacestode integrity was seriously impaired”.

**Q.** What about the “lowest concentration with ultrastructural damage (TEM)” value ([5]; 5 days of BPQ) of the same molecule?
**A.** The value was 0.3 µM.

**Q.** What about the “oxygen consumption rate (OCR) after addition of drug” value ([6]; permeabilized GL cells fed with succinate) of the same molecule?
**A.** The value was “rapidly decreased”.

**Q.** What about the “inhibition of mitochondrial electron transport chain complex” value ([6]; OCR restored by ascorbate/TMPD, not by succinate or glycerol 3-phosphate) of the same molecule?
**A.** Its value is “selectively inhibits complex III”.

**Q.** What about the “parasite burden compared to the control” value [7] of the same molecule?
**A.** The value was “failed to reduce the parasite burden”.

**Q.** What about the “parasite burden compared to the control” value ([7]; listed as BPQ) of the same molecule?
**A.** Its value is “no significant difference”.

**Q.** And the “adverse effects due to treatment” value ([7]; whole course of treatment, 4 weeks p.o.)?
**A.** The value was “None of the mice showed signs of adverse effects”.

**Q.** And the “Cmax extrapolated (assuming linear correlation)” value [8]?
**A.** The value was 20000 nM.

**Q.** And the Cmax [9]?
**A.** The Cmax was 1200 nM.

**Q.** And the “damage on metacestodes (PGI-assay), anaerobic, 10 μM or lower” value ([10]; 10 μM or lower)?
**A.** Its value is “did not induce damage”.

**Q.** What about the “damage on metacestodes (PGI-assay), anaerobic, 30 μM” value ([10]; 30 μM) of the same molecule?
**A.** The value was “active”.

**Q.** What about the IC50 ([11]; read-out: HFF confluent IC50) of the same molecule?
**A.** The IC50 was 48.6 µM.

**Q.** What about the IC50 [11, 17] of the same molecule?
**A.** Its IC50 is 5.99 µM.

**Q.** Which “activity against metacestodes at 1 μM” value ([1]; 1 μM, triplicates) does the source give for `Cc1[nH]c2cc(F)cc(F)c2c(=O)c1-c1ccc(Oc2ccc(OC(F)(F)F)cc2)cc1` [MMV671636, ELQ-400] here?
**A.** Its value is “distinct in vitro activities”.

**Q.** And the “PGI release, % of Tx-100 control, average, 5d” value [1, 14]?
**A.** Its value is 56.00%.

**Q.** And the “PGI release, % of Tx-100 control, average, 12d” value [1, 15]?
**A.** Its value is 70.43%.

**Q.** What about the “activity in the screen at 10 μM (confirmed in triplicates, >20% relative PGI release)” value ([1]; 10 μM, 5 and 12 days) of the same molecule?
**A.** The value was “active”.

**Q.** And the cytotoxicity at 10 µM ([1]; Echinococcus multilocularis, 120 h, read-out: PGI release, % of Tx-100 control, average, 5d)?
**A.** Its cytotoxicity at 10 µM is 5.44%.

**Q.** What about the cytotoxicity at 10 µM ([1]; Echinococcus multilocularis, 120 h, read-out: PGI release, % of the Tx-100 control, 5d) of the same molecule?
**A.** Its cytotoxicity at 10 µM is 6.52%.

**Q.** And the cytotoxicity at 10 µM ([1]; Echinococcus multilocularis, 288 h, read-out: PGI release, % of Tx-100 control, average, 12d)?
**A.** The cytotoxicity at 10 µM was 76.1%.

**Q.** And the cytotoxicity at 10 µM ([1]; Echinococcus multilocularis, 288 h, read-out: PGI release, % of the Tx-100 control, 12d)?
**A.** Its cytotoxicity at 10 µM is 24%.

**Q.** And the IC50 ([1]; Echinococcus multilocularis, read-out: IC50 against in vitro cultured E. multilocularis metacestodes)?
**A.** Its IC50 is 0.02 µM.

**Q.** What about the “toxicity against E. multilocularis metacestodes compared with host cells (HFF, RH)” value [1, 16] of the same molecule?
**A.** The value was “specific toxicity”.

**Q.** What about the EC50 ([1]; read-out: E. multilocularis EC50; PGI-assay, 5 days in vitro) of the same molecule?
**A.** The EC50 was 0.02 µM.

**Q.** What about the EC50 ([1]; read-out: E. multilocularis EC50; PGI-assay, 5 days in vitro; listed as MMV671363) of the same molecule?
**A.** Its EC50 is < 1 µM.

**Q.** What about the “E. multilocularis MIC” value ([3]; listed as MMV671363) of the same molecule?
**A.** The value was “below 1 μM”.

**Q.** And the MIC [3]?
**A.** Its MIC is 0.01 µM (≈ 0.00447 µg/mL).

**Q.** And the IC50 ([4]; read-out: RH confluent IC50)?
**A.** Its IC50 is 2.07 µM.

**Q.** And the IC50 ([4]; read-out: RH preconfluent IC50)?
**A.** The IC50 was 0.25 µM.

**Q.** What about the IC50 ([11]; read-out: HFF confluent IC50) of the same molecule?
**A.** Its IC50 is 74.8 µM.

**Q.** And the IC50 [11, 17]?
**A.** Its IC50 is 12.3 µM.
